Measured values as given in patent US11472838B2, “Inhibitors of blood coagulation factor XIII” (Zedira GmbH, priority 2018, dated 2022).
Like-named read-outs stand apart in the source and are kept apart here. *1 amine or outer side, *2 acyl side, *3 side chain or, on linkers, in order; H or OH if unused. Where a SMILES comes first, the peptide text is derived from it. [ ]: non-standard residue; d: D form. The star is where a group is joined. ξ: configuration not given here. Benzoyl(2-COOH-4,5-Cl2) = O=C(O)c1cc(Cl)c(Cl)cc1C(=O)*; Pro(3S,4R-(CH2)3) = O=C(O)[C@H]1NC[C@@H]2CCC[C@@H]21; Nle(5E-ene,6-CO2Et) = CCOC(=O)/C=C/CC[C@H](N)C(=O)O; Isonicotinoyl(3-COOH) = O=C(O)c1cnccc1C(=O)*; X1 = COC(=O)/C=C/CC[C@H](N[*:1])C(=O)[*:2]; X3 = O=C(c1cnc(O)c([N+](=O)[O-])c1)*; Pro(4-oxo) = O=C1CN[C@H](C(=O)O)C1; Thiophene2carbonyl = O=C(c1cccs1)*; Ala(cPr) = N[C@@H](CC1CC1)C(=O)O; Ile(3ξ) = CCC(C)[C@H](N)C(=O)O; Chg = N[C@H](C(=O)O)C1CCCCC1; Tle = CC(C)(C)[C@H](N)C(=O)O; Nle = CCCC[C@H](N)C(=O)O; NHIsopentyl = CC(C)CCN*; Cbz = O=C(OCc1ccccc1)*

Tests used:
[1] = biological target: FXIII (Homo sapiens (Human), UniProt P00488); experiment: Inhibitory activity against FXIII (isopeptidase assay), Tables 3 and 4; type: biochemical;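 note: FXIIIa activity read with a peptide substrate derived from the α2-antiplasmin N-terminal dodecapeptide, FXIII activated beforehand at room temperature, inhibitor-free wells with DMSO buffer as control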
[2] = biological target: TG2 (Homo sapiens (Human), UniProt P21980); experiment: Inhibitory activity against TG2 (isopeptidase assay), Tables 3 and 4; type: biochemical; details: for Selectivity: TG2 versus FXIII
[3] = Stability of compounds in plasma (HPLC); details: for recovery in plasma determined by HPLC: 37° C., over a period of 2 hours; for recovery in plasma determined by HPLC / half-life: plasma
Experimental: Further, the stability of compounds in plasma was determined as prerequisite for drug-likeness. Briefly, after spiking the chemical entities, the plasma was incubated at 37° C. At certain time points (e.g. at 15 and 120 minutes), 3 vol. cold MeOH were added to extract the compounds. After centrifugation, the supernatant was analyzed by HPLC. The half life was calculated based on the respective calibration curve.

[4] = isopeptidase assay, Table 3, read-out: IC50 [nM] FXIII
[5] = isopeptidase assay, Table 3, read-out: IC50 [nM] TG2

TG2, sequence (P21980 whole entry): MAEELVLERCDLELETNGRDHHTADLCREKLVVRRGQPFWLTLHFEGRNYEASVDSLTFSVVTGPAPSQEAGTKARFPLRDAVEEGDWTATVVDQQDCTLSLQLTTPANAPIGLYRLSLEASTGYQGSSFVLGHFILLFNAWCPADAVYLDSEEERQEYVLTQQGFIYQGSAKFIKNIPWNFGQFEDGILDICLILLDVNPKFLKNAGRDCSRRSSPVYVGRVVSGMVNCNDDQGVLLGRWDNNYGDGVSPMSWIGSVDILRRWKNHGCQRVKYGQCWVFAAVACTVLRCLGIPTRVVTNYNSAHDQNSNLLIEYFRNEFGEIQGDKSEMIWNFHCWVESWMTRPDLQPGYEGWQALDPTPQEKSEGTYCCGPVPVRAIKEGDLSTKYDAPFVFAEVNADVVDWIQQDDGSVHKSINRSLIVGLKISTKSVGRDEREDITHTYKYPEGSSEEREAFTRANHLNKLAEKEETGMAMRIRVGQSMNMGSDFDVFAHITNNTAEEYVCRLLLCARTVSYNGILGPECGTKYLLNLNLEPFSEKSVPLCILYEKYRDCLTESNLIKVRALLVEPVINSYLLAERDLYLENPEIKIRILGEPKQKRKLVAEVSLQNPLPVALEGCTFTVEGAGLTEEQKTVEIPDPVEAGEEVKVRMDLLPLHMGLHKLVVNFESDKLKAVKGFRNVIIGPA
FXIII, sequence (P00488 39-732): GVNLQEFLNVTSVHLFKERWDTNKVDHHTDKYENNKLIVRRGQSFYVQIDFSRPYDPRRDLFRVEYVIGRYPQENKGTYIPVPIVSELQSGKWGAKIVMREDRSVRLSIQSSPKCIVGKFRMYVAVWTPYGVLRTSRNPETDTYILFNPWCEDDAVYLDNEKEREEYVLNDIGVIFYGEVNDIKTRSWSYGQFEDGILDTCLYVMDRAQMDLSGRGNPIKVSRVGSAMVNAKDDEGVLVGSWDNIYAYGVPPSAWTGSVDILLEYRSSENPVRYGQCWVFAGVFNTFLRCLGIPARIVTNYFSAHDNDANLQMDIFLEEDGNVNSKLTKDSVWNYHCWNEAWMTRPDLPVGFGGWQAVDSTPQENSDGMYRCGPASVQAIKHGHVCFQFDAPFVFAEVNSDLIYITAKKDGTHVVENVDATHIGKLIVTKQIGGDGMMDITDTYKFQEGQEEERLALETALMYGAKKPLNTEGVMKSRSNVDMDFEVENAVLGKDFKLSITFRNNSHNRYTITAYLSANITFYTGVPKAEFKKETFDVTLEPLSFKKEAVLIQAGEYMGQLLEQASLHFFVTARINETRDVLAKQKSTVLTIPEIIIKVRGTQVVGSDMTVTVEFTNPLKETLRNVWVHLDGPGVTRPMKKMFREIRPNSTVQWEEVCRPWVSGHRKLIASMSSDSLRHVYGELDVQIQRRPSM

IC50 ([1]; Table 4, read-out: FXIII IC50) | IC50 ([2]; Table 4, read-out: TG2 IC50) | recovery at 2 h [3] | Selectivity ([2]; Table 4) | half-life [3] | SMILES | IC50 [1, 4] | recovery in plasma determined by HPLC [3] | Selectivity ([2]; isopeptidase assay, Table 3) | IC50 [2, 5]
5690 nM | 26 nM |  |  |  | CCOC(=O)/C=C/CC[C@H](NC(=O)OCc1ccccc1)C(=O)N[C@@H](CCC(N)=O)C(=O)N1CCC[C@H]1C(=O)N[C@@H](CC(C)C)C(=O)N[C@H](C(N)=O)C1CCCCC1 [Ref. 09, reference compound] (Cbz-[Nle(5E-ene,6-CO2Et)]QPL[Chg]-NH2) |  |  |  | 
 |  |  |  |  | COC(=O)/C=C/CC[C@H](NC(=O)c1ccncc1C(=O)O)C(=O)N[C@@H](CCSC)C(=O)N1CC(=O)C[C@H]1C(=O)N[C@H](C(=O)N[C@H](C(N)=O)C1CCCCC1)C1CCCCC1 [37a/b] ({Isonicotinoyl(3-COOH)}-[X1]M[Pro(4-oxo)][Chg][Chg]-NH2) | 69 nM | > 75% | 4.7 | 324 nM
 |  |  |  |  | CNC(=O)[C@@H](NC(=O)[C@@H](NC(=O)[C@@H]1CC(=O)CN1C(=O)[C@@H](NC(=O)[C@H](CC/C=C/C(=O)OC)NC(=O)c1ccncc1C(=O)O)C(C)(C)C)C1CCCCC1)C1CCCCC1 [36a/b] ({Isonicotinoyl(3-COOH)}-[X1][Tle][Pro(4-oxo)][Chg][Chg]-NHMe) | 41 nM | > 75% | 4.1 | 168 nM
47 nM | 760 nM | > 75% | 16.17 |  | CCOC(=O)/C=C/CC[C@H](NC(=O)c1cc(Cl)c(Cl)cc1C(=O)O)C(=O)N[C@H](C(=O)N1CCC[C@H]1C(=O)N[C@@H](CC(C)C)C(=O)N[C@H](C(N)=O)C1CCCCC1)C(C)C [Compound 38] ({Benzoyl(2-COOH-4,5-Cl2)}-[Nle(5E-ene,6-CO2Et)]VPL[Chg]-NH2) |  |  |  | 
 |  | > 75% |  |  | COC(=O)/C=C/CC[C@H](NC(=O)c1cnc(O)c([N+](=O)[O-])c1)C(=O)N[C@H](C(=O)N1C[C@@H]2CCC[C@@H]2[C@H]1C(=O)N[C@H](C(=O)N[C@H](C(N)=O)C1CCCCC1)C1CCCCC1)C(C)(C)C [Compound 28] (X3-[X1][Tle][Pro(3S,4R-(CH2)3)][Chg][Chg]-NH2) | 36 nM |  | 1.1 | 41 nM
 |  | > 75% |  |  | COC(=O)/C=C/CC[C@H](NC(=O)c1cnc(O)c([N+](=O)[O-])c1)C(=O)N[C@H](C(=O)N1CC(=O)C[C@H]1C(=O)N[C@H](C(=O)N[C@H](C(N)=O)C1CCCCC1)C1CCCCC1)C(C)(C)C [Compound 6] (X3-[X1][Tle][Pro(4-oxo)][Chg][Chg]-NH2) | 17 nM |  | 0.7 | 12 nM
> 10 nM | 421 nM |  |  |  | COC(=O)/C=C/CC[C@H](NC(=O)[C@H](CC(N)=O)NC(C)=O)C(=O)N[C@@H](CCC(=O)O)C(=O)N[C@@H](CCC(N)=O)C(=O)N[C@H](C(=O)N[C@@H](CO)C(=O)N1CCC[C@H]1C(=O)N[C@@H](CC(C)C)C(=O)O)C(C)C [Ref. 21, reference compound] (Ac-N[X1]EQVSPL-OH) |  |  |  | 
110 nM | 2920 nM |  | 26.54 | < 15 min | CCCC[C@H](NC(=O)[C@H](CC/C=C/C(=O)OC)NC(=O)[C@@H](CC(=O)O)NC(C)=O)C(=O)N[C@@H](CCCC)C(=O)N[C@@H](CC(C)C)C(=O)N1CCC[C@H]1C(=O)N[C@@H](Cc1c[nH]c2ccccc12)C(=O)N1CCC[C@H]1C(=O)O [Ref. 22, reference compound] (Ac-[dD][X1][Nle][Nle]LPWP-OH) |  |  |  | 
> 10 nM | 196 nM |  |  | < 15 min | CCCC[C@H](NC(=O)[C@H](CC/C=C/C(=O)OC)NC(=O)[C@@H]1CC(=O)CN1)C(=O)N[C@H](C(=O)N[C@@H](CC(C)C)C(=O)N1CCC[C@H]1C(=O)O)C(C)CC (stereo partly drawn) [Ref. 16, reference compound] (H-[Pro(4-oxo)][X1][Nle][Ile(3ξ)]LP-OH) |  |  |  | 
8180 nM | 176 nM |  | 0.02 |  | CCOC(=O)/C=C/CC[C@H](NC(=O)OCc1ccccc1)C(=O)N[C@H](C(=O)N1CCC[C@H]1C(=O)N[C@H](C(=O)NCCC(C)C)C1CCCCC1)C(C)C [Ref. 10, reference compound] (Cbz-[Nle(5E-ene,6-CO2Et)]VP[Chg]-NHIsopentyl) |  |  |  | 
465 nM | 2800 nM |  | 6.02 | < 15 min | CCCC[C@H](NC(=O)[C@H](CC/C=C/C(=O)OC)NC(=O)[C@@H](CC(=O)O)NC(C)=O)C(=O)N[C@@H](CCCC)C(=O)N[C@@H](CC(C)C)C(=O)N1CCC[C@H]1C(=O)N[C@@H](Cc1c[nH]c2ccccc12)C(=O)O [Ref. 13, reference compound] (Ac-[dD][X1][Nle][Nle]LPW-OH) |  |  |  | 

SMILES | IC50 ([1]; Table 4, read-out: FXIII IC50) | IC50 ([2]; Table 4, read-out: TG2 IC50) | recovery at 2 h [3] | Selectivity ([2]; Table 4) | half-life [3] | IC50 [1, 4] | recovery in plasma determined by HPLC [3] | Selectivity ([2]; isopeptidase assay, Table 3) | IC50 [2, 5]
CCOC(=O)/C=C/CC[C@H](NC(=O)c1cccs1)C(=O)N[C@@H](CC1CC1)C(=O)N1CCC[C@H]1C(=O)N[C@@H](CC(C)C)C(=O)N[C@H](C(N)=O)C1CCCCC1 [Compound 41] (Thiophene2carbonyl-[Nle(5E-ene,6-CO2Et)][Ala(cPr)]PL[Chg]-NH2) |  |  | > 75% |  |  |  |  |  | 
